Some test systems named below: MCF7 breast; SNB-78 CNS; KM20L2 colon; DLD-1 colon; RXF-631 renal; DMS 273 small cell lung; DMS 114 small cell lung; XF 498 CNS; MDA-N.
What all share (experiment): growth of human tumour cells (NCI), 48 h

Where “and” joins values, the source holds several entries; their conditions need not be identical. Equal entries are not always repeated.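 Cultured in 96-well plates, cells were exposed to test compound for 48 hours across five concentrations. GI50 is the concentration that inhibits growth by half. The concentration for full growth arrest is given as TGI.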 Some results are limits rather than exact numbers.

Consider `Cc1ccc(SC2c3ccc(C)cc3Oc3nc(N)c(C#N)c(N)c32)cc1` (stereo not given), for which, in the experiment with MCF7 breast, the GI50 is 1.94 µM and the TGI is 4.74 µM.

As to `N#Cc1c(N)nc(N2CCOCC2)c(C#N)c1-c1ccncc1`, in the experiment on MCF7 breast, the GI50 is 34.5 µM and the TGI is more than 100 µM.

Regarding `Nc1ccc([N+](=O)[O-])cc1N=C/C=C/c1ccccc1`, in the experiment on MCF7 breast, the GI50 was 6.61 µM and the TGI is more than 100 µM.

Regarding `Cn1c(I)c(C#CCO[Si](C)(C)C(C)(C)C)c(=O)[nH]c1=O`, in the experiment on MCF7 breast, the GI50 was 15 µM and the TGI amounted to 33.2 µM.

Turning to `COC(=O)c1ccc2c(c1)nc(NC(=O)c1ccccc1)n2CCCc1ccccc1`, in the experiment on MCF7 breast, the GI50 was 1.78 µM and the TGI was more than 100 µM.

For the compound `N.N.N.N.O=C([O-])CCl.O=C([O-])CCl.[Co+3].[O-][Cl+3]([O-])([O-])[O-]`, the GI50 with SNB-78 CNS, in the experiment with KM20L2 colon and with DLD-1 colon was more than 100 µM throughout. In addition, the TGI with SNB-78 CNS, in the experiment on KM20L2 colon and in the experiment with DLD-1 colon was more than 100 µM each time.

Turning to `C[N+](C)(C)CC1CCCc2ccccc2C1=O` (stereo not given), in the experiment on MCF7 breast, the GI50 was 0.511 µM; the TGI was 5.29 µM and 2.23 µM.

As to `O=C(Nc1ccn(CCO)c(=O)n1)c1ccccc1`, the TGI in the experiment with SNB-78 CNS, in the experiment on RXF-631 renal, in the experiment on KM20L2 colon, in the experiment on DMS 273 small cell lung, in the experiment with DMS 114 small cell lung and in the experiment with DLD-1 colon was more than 100 µM throughout.

On to `O=C1CCC2(c3ccc(Cl)cc3)Nc3ncccc3N12` (stereo not given), for which the TGI in the experiment on SNB-78 CNS, in the experiment with KM20L2 colon, with DMS 114 small cell lung, in the experiment with XF 498 CNS and in the experiment on DLD-1 colon was more than 100 µM in each case.

Consider `CCOC(=O)C(C#N)C1=CC(=O)C(=O)c2ccc(OC)cc21` (stereo not given), for which the TGI was 17.1 µM with MDA-N and 31.4 µM in the experiment on MCF7 breast.

On to `Cn1cc(C2=C(c3ccc(N)cc3)C(=O)NC2=O)c2ccccc21`, for which, in the experiment with MCF7 breast, the GI50 is 13.7 µM and the TGI is more than 25 µM.

For the compound `CCOC(=O)c1ccc(NC(=O)Oc2ccc3c(C)cc(=O)oc3c2)cc1`, the TGI was more than 100 µM in the experiment on MDA-N and 88 µM in the experiment with MCF7 breast.

For the compound `Cc1cc(C)c2c(n1)sc1c(Nc3ccc(Cl)cc3)ncnc12`, in the experiment with MCF7 breast, the GI50 is less than 0.01 µM and the TGI was more than 100 µM.

For the compound `COc1ccc2occ(CCC(=O)O)c2c1`, the TGI in the experiment with SNB-78 CNS, in the experiment on KM20L2 colon, with DMS 273 small cell lung, in the experiment with DMS 114 small cell lung, with XF 498 CNS and with DLD-1 colon was more than 100 µM in each case.

For `CCC(=O)CC(=O)CCC(=O)Nc1cc(C)ccc1C`, the TGI in the experiment on SNB-78 CNS, in the experiment with KM20L2 colon, with XF 498 CNS and in the experiment on DLD-1 colon was more than 100 µM in each case.

For the compound `[N-]=[N+]=NC1(Cc2ccccc2)C(=O)c2cccc3c2N(CCC3)C1=O` (stereo not given), the TGI with DMS 273 small cell lung, in the experiment on DMS 114 small cell lung and with DLD-1 colon was more than 100 µM throughout.

Take `OC(CC1SCCCS1)c1ccccc1` (stereo not given): the TGI with KM20L2 colon, in the experiment with DMS 273 small cell lung, with DMS 114 small cell lung, in the experiment with XF 498 CNS and in the experiment on DLD-1 colon was more than 100 µM in each case.

For `O=C(Nc1ccc2ncccc2c1)Nc1ccc2ncccc2c1`, the TGI in the experiment with MDA-N and with MCF7 breast was more than 100 µM in each case.

With `Clc1ccc2c(c1)[nH]c1c2nc2ccccn21`, the TGI with SNB-78 CNS is 83.9 µM and 61.6 µM; in the experiment on RXF-631 renal it was > 100 µM and 69.2 µM; in the experiment on KM20L2 colon, 74.9 µM and 28.7 µM; in the experiment on XF 498 CNS, 89.1 µM and 29.8 µM. Also, the GI50 in the experiment with XF 498 CNS was 35.9 µM and 16 µM.

Take `CSc1nc(=O)n(CCC#N)nc1SC`: the values for the TGI in the experiment on MDA-N and in the experiment on MCF7 breast were 51.4 µM and 9.04 µM, respectively.

With `CCCCOC(=O)CNC(=O)OC/C=C/C#CC#C/C=C/COC(=O)NCC(=O)OCCCC`, the TGI in the experiment with SNB-78 CNS is more than 10 µM; in the experiment on RXF-631 renal it was more than 100 µM; with KM20L2 colon, more than 100 µM; in the experiment with DMS 114 small cell lung, more than 100 µM; with XF 498 CNS, more than 10 µM; with DLD-1 colon, more than 100 µM. Besides, the GI50 in the experiment on RXF-631 renal, in the experiment on KM20L2 colon, in the experiment on DMS 114 small cell lung and with DLD-1 colon was more than 100 µM throughout.

Consider `CC(C)N(C(=O)C12C3C4C1C1C4(C#N)C3C12C#N)C(C)C` (stereo not given), for which the TGI with SNB-78 CNS, in the experiment with RXF-631 renal, in the experiment on KM20L2 colon, in the experiment with DMS 114 small cell lung, with XF 498 CNS and in the experiment on DLD-1 colon was more than 100 µM throughout.

For the compound `O=[N+]([O-])c1cccc(C2=NN(c3ccccc3)C[N+](c3ccc(Br)cc3)=N2)c1`, the TGI in the experiment with SNB-78 CNS, in the experiment on KM20L2 colon, with DMS 273 small cell lung, with XF 498 CNS and in the experiment on DLD-1 colon was more than 100 µM in each case.

For `COc1cccc(C2CC(C)(O)Oc3cc4c(cc32)OCO4)c1O` (stereo not given), the figures for the TGI in the experiment on MDA-N and in the experiment with MCF7 breast were 10.4 µM and more than 66.5 µM, respectively.

Turning to `c1ccc2cc(-c3cc4ccccc4s3)ccc2c1`, the TGI in the experiment with SNB-78 CNS, with KM20L2 colon, in the experiment on DMS 273 small cell lung, in the experiment on DMS 114 small cell lung, with XF 498 CNS and in the experiment with DLD-1 colon was more than 100 µM in each case.

With `CC(C)C1=CC23CCC4C(C)(C(=O)O)CCCC4(C)C2CC1C1C(=O)N(c2ccc(Cc4ccc(N5C(=O)C6C7CC8C9(C)CCCC(C)(C(=O)O)C9CCC8(C=C7C(C)C)C6C5=O)cc4)cc2)C(=O)C13` (stereo not given), the results for the TGI in the experiment on MDA-N and in the experiment on MCF7 breast were 24.8 µM and 18.9 µM, respectively.

Source of the values: PubChem BioAssay (NCI).
